Among the data in patent US20260184687A1, “DIHYDROINDENE DERIVATIVES AS MALT1 INHIBITORS” (C4X Discovery Limited, priority 2022, published 2026) are IC50 values, retold here.

Where a name gives a salt, the structure may show the parent alone.

The test system of test [1] is IL-2 release from stimulated Jurkat cells. Briefly: Human IL-2 Release Phenotypic Assay (Assay 3). Particulars: Jurkat cells (clone E6-1), 200 ng/mL PMA + 300 ng/mL ionomycin, IL-2 by ELISA. Format: cell-based. In short, it runs like this: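 Jurkat E6-1 cells in RPMI1640/10% FBS were seeded at 50 000 cells/well and incubated overnight at 37° C. Half-log compound dilutions (0.5% final DMSO) were added for 30 min, then cells were stimulated with 200 ng/mL PMA + 300 ng/mL ionomycin for 48 h. IC50 came from a 4-parameter non-linear regression fit.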
(ELISA stands for enzyme-linked immunosorbent assay.)

For test [2], the target named is MALT1-GS-Ub (6-His-hMALT-1 residues 339-715 fused to ubiquitin) (Homo sapiens, UniProt Q9UDY8). Briefly: biochemical.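 Note: in vitro MALT1 protease assay: enzyme preincubated with compound 30 min at room temperature, then cleavage of fluorogenic Ac-LVSR-AMC substrate (100 µM) followed by fluorescence every 15 min.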
The target in the next test is T1, FL hMALT1 enzyme (Homo sapiens, UniProt Q9UDY8).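 Note: Cell-free protease assay: enzyme preincubated with compound 30 min at room temperature, then cleavage of fluorogenic Ac-LVSR-AMC substrate (100 µM) tracked by fluorescence (ex 360/em 460 nm).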
T1 sequence (Q9UDY8 1-824): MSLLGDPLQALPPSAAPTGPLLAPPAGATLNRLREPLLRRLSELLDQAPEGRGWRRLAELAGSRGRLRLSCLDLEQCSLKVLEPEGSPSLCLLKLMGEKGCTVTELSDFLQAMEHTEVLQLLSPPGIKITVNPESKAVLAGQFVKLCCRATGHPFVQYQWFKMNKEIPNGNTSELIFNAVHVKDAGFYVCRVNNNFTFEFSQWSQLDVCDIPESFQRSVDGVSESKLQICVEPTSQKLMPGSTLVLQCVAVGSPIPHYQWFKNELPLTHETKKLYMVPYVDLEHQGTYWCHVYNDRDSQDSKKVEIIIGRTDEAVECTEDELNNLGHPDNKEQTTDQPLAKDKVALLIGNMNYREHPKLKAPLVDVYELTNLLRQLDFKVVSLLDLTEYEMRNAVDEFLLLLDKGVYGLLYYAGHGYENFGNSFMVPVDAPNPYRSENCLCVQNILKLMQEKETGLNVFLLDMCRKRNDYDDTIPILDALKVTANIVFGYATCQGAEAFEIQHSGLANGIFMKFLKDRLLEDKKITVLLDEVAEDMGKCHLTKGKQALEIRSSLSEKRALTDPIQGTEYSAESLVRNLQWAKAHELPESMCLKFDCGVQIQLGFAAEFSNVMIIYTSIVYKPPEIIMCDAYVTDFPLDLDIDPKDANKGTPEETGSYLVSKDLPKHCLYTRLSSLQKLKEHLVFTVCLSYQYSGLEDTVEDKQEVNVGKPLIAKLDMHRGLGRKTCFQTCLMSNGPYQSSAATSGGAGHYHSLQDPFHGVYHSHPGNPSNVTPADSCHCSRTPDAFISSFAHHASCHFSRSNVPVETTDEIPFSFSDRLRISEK
Briefly: biochemical.
Description: MALT1 protease activity was assessed in vitro by measuring the cleavage of a fluorogenic tetrapeptide substrate.
A protein (MALT1-GS-Ub) comprising 6-His-hMALT-1 (residues 339-715), fused to ubiquitin with an 8×GGS linker, was expressed in E. coli, and purified using chitin resin to remove contaminants followed by affinity chromatography purification and size-exclusion chromatography, according to standard protocols.
Briefly, MALT1-GS-Ub (300-600 nM) was incubated with substrate (Ac-LVSR-AMC, 100 μM) in reaction buffer comprising 50 mM HEPES (pH7.0), 25 mM KCl, 0.1% (v/v) CHAPS and 1 mM TCEP.
Test compounds dissolved in DMSO were dispensed into assay plates (384-well, black, shallow ProxiPlates). 7 μl enzyme solution was added and incubated at room temperature for 30 minutes to allow compound binding to occur. 2 μl substrate solution was then added and the fluorescence (excitation 360 nm, emission 460 nm) read every 15 minutes using a suitable plate reader. Final assay DMSO concentration was 1%. […] IC50 values were calculated using GraphPad Prism using a 4-parameter non-linear regression curve fit.

Sequence of MALT1-GS-Ub (6-His-hMALT-1 residues 339-715 fused to ubiquitin) (Q9UDY8 with tags, fused parts or gaps limits assumed): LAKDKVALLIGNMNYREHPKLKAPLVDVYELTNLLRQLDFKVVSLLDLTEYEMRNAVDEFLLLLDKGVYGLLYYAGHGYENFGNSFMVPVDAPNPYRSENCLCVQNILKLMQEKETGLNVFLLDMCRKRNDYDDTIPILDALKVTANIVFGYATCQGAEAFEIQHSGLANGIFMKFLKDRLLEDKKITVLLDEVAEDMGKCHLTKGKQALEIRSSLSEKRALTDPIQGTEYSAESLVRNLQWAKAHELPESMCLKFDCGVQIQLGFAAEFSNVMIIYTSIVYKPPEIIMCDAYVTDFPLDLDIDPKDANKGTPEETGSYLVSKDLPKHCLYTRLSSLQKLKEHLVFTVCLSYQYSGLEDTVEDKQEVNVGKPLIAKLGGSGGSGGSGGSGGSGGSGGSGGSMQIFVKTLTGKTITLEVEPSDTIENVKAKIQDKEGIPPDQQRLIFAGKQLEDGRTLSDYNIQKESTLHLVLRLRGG

Consider `CN(C(=O)c1cc[nH]c(=O)c1)C(c1ccc(NC2Cc3ccccc3C2(C)C)cn1)C(F)(F)F` (single isomer, unassigned) [Example 98, N-(1-(5-((1,1-Dimethyl-2,3-dihydro-1H-inden-2-yl)amino)pyridin-2-yl)-2,2,2-trifluoroethyl)-N-methyl-2-oxo-1,2-dihydropyridine-4-carboxamide], for which the IC50 is 880 nM in test [1] (48 hours), 210 nM in test [2] and 590 nM at FL hMALT1 enzyme.
In the case of `CN(C(=O)N1CCOCC1)[C@@H](c1ccc(N[C@@H]2Cc3ccccc3C2(C)C)cc1)C(F)(F)F` (single isomer, unassigned) [Example 13], the half-inhibitory concentration (IC50) turned out to be 1930 nM in test [1] (Homo sapiens, Jurkat, 48 h); 400 nM in test [2]; 400 nM against FL hMALT1 enzyme.
As to `CN(C(=O)C1CCS(=O)(=O)CC1)[C@@H](c1ccc(NC2Cc3ccc(Cl)cc3C2)cc1)C(F)(F)F` (single isomer, unassigned) [Example 56], the IC50 came to 93 nM in test [1] (48 hours), 150 nM in test [2] and 14 nM on FL hMALT1 enzyme.
On to `CN(C(=O)C1CNC1)[C@@H](c1ccc(NC2Cc3ccccc3C2(C)C)cc1)C(F)(F)F` (stereo partly drawn) [Example 72, N-((1S)-1-(4-((1,1-Dimethyl-2,3-dihydro-1H-inden-2-yl)amino)phenyl)-2,2,2-trifluoroethyl)-N-methylazetidine-3-carboxamide Hydrochloride], for which the half-inhibitory concentration (IC50) in test [1] (Homo sapiens, Jurkat, 48 h) stood at 520 nM; in test [2], 270 nM; against FL hMALT1 enzyme it was 220 nM.
With `COCC(=O)N(C)[C@@H](c1ccc(NC2Cc3ccccc3C2(C)C)cc1)C(F)(F)F` (single isomer, unassigned) [Example 28], the IC50 in test [1] (48 hours) was 2610 nM; in test [2], 290 nM; against FL hMALT1 enzyme it was 200 nM.
Take `CC1c2ccccc2CC1Nc1ccc(C(N(C)C(=O)C2CCS(=O)(=O)CC2)C(F)(F)F)cc1` (mixture of isomers) [Example 8, N-Methyl-N—((S)-2,2,2-trifluoro-1-(4-(((1,2-cis)-1-methyl-2,3-dihydro-1H-inden-2-yl)amino)phenyl)ethyl)tetrahydro-2H-thiopyran-4-carboxamide 1,1-dioxide]: the IC50 came to 150 nM in test [1] (Homo sapiens, Jurkat, 48 h); 200 nM in test [2]; 39 nM at FL hMALT1 enzyme.
In the same order, the values of `C[C@H](c1ccc(NC2Cc3ccccc3C2(C)C)cc1)N(C)C(=O)C1CCS(=O)(=O)CC1` (single isomer, unassigned) [Example 63] are 2550 nM, 390 nM and 200 nM.
For the compound `CN(C(=O)C1CCOCC1)[C@@H](c1ccc(NC2Cc3ccccc3C2(C)C)cc1)C(F)(F)F` (single isomer, unassigned) [Example 19], the figures for the IC50 (in test [1] (48 hours); in test [2]; on FL hMALT1 enzyme) were 110 nM, 170 nM and 30 nM, respectively.
Regarding `CN(C(=O)C1CCS(=O)(=O)CC1)[C@@H](c1ccc(NC2Cc3ccccc3C2(C)C)cn1)C(F)(F)F` (single isomer, unassigned) [Example 77], the figures for the IC50 (in test [1] (48 hours); in test [2]; against FL hMALT1 enzyme) were 920 nM, 310 nM and 68 nM, respectively.
For `CN(C(=O)c1cc[nH]c(=O)c1)C(c1ccc(NC2Cc3ccccc3C2(C)C)cn1)C(F)(F)F` (single isomer, unassigned) [Example 96, N-(1-(5-((1,1-Dimethyl-2,3-dihydro-1H-inden-2-yl)amino)pyridin-2-yl)-2,2,2-trifluoroethyl)-N-methyl-2-oxo-1,2-dihydropyridine-4-carboxamide], the IC50 in test [1] (Homo sapiens, Jurkat, 48 h) amounted to 1560 nM; in test [2], 140 nM; on FL hMALT1 enzyme it was 130 nM.
With `CN(C(=O)C1CNC1)C(c1ccc(NC2Cc3ccccc3C2(C)C)nc1)C(F)(F)F` (single isomer, unassigned) [Example 88, N-(1-(6-((1,1-Dimethyl-2,3-dihydro-1H-inden-2-yl)amino)pyridin-3-yl)-2,2,2-trifluoroethyl)-N-methylazetidine-3-carboxamide], the half-inhibitory concentration (IC50) is 1710 nM in test [1] (48 hours), 650 nM in test [2] and 370 nM at FL hMALT1 enzyme.
For `CN(C(=O)CCC(=O)O)[C@@H](c1ccc(NC2Cc3ccccc3C2(C)C)cc1)C(F)(F)F` (single isomer, unassigned) [Example 53], the concentration for half-maximal inhibition (IC50) was determined as 7290 nM in test [1] (48 hours) and 170 nM in test [2].
With `CN(C(=O)C1CNC1)C(c1ccc(NC2Cc3ccccc3C2(C)C)nc1)C(F)(F)F` (single isomer, unassigned) [Example 89, N-(1-(6-((1,1-Dimethyl-2,3-dihydro-1H-inden-2-yl)amino)pyridin-3-yl)-2,2,2-trifluoroethyl)-N-methylazetidine-3-carboxamide], the results for the half-inhibitory concentration (IC50) (in test [2]; against FL hMALT1 enzyme) were 6860 nM and over 3000 nM, respectively.
Turning to `CN(C(=O)CCCC(=O)O)[C@@H](c1ccc(NC2Cc3ccccc3C2(C)C)cc1)C(F)(F)F` (single isomer, unassigned) [Example 50], the results for the concentration for half-maximal inhibition (IC50) in test [1] (48 hours) and in test [2] were 2940 nM and 120 nM, respectively.
`CN(C(=O)CCC(=O)O)[C@@H](c1ccc(NC2Cc3ccccc3C2(C)C)cc1)C(F)(F)F` (single isomer, unassigned) [Example 52]: the IC50 amounted to 9510 nM in test [1] (Homo sapiens, Jurkat, 48 h) and 260 nM in test [2].
As for `CN(C(=O)C1CNC1)C(c1ccc(NC2Cc3ccccc3C2(C)C)cn1)C(F)(F)F` (single isomer, unassigned) [Example 83, N-(1-(5-((1,1-Dimethyl-2,3-dihydro-1H-inden-2-yl)amino)pyridin-2-yl)-2,2,2-trifluoroethyl)-N-methylazetidine-3-carboxamide], the concentration for half-maximal inhibition (IC50) in test [2] is 16000 nM; against FL hMALT1 enzyme, over 3000 nM.
As for `CN1CC(C(=O)N(C)C(c2ccc(NC3Cc4ccccc4C3(C)C)nc2)C(F)(F)F)C1` (single isomer, unassigned) [Example 94, N-(1-(6-((1,1-Dimethyl-2,3-dihydro-1H-inden-2-yl)amino)pyridin-3-yl)-2,2,2-trifluoroethyl)-N,1-dimethylazetidine-3-carboxamide], the values for the IC50 (in test [2]; against FL hMALT1 enzyme) were 17000 nM and over 3000 nM, respectively.
As to `CN1CC(C(=O)N(C)C(c2ccc(NC3Cc4ccccc4C3(C)C)cn2)C(F)(F)F)C1` (single isomer, unassigned) [Example 90, N-(1-(5-((1,1-Dimethyl-2,3-dihydro-1H-inden-2-yl)amino)pyridin-2-yl)-2,2,2-trifluoroethyl)-N,1-dimethylazetidine-3-carboxamide], the IC50 in test [2] is 81000 nM; at FL hMALT1 enzyme it was over 3000 nM.
On to `CN(C(=O)c1cc[nH]c(=O)c1)C(c1ccc(NC2Cc3ccccc3C2(C)C)cn1)C(F)(F)F` (single isomer, unassigned) [Example 97, N-(1-(5-((1,1-Dimethyl-2,3-dihydro-1H-inden-2-yl)amino)pyridin-2-yl)-2,2,2-trifluoroethyl)-N-methyl-2-oxo-1,2-dihydropyridine-4-carboxamide], for which the IC50 in test [2] is 16000 nM; against FL hMALT1 enzyme, over 3000 nM.
With `COc1ccc2c(c1)CC(Nc1ccc([C@H](N(C)C(=O)C3CCS(=O)(=O)CC3)C(F)(F)F)cc1)C2` (single isomer, unassigned) [Example 54], the 50% inhibitory concentration (IC50) in test [1] (Homo sapiens, Jurkat, 48 h) was 2110 nM; in test [2] it was 330 nM.
In the case of `CNS(=O)(=O)CCC(=O)N(C)[C@@H](c1ccc(NC2Cc3ccccc3C2(C)C)cc1)C(F)(F)F` (single isomer, unassigned) [Example 62], the IC50 in test [1] (48 hours) is 2120 nM; in test [2], 170 nM.
As for `CN(C(=O)c1cc[nH]c(=O)c1)C(c1ccc(NC2Cc3ccccc3C2(C)C)cn1)C(F)(F)F` (single isomer, unassigned) [Example 99, N-(1-(5-((1,1-Dimethyl-2,3-dihydro-1H-inden-2-yl)amino)pyridin-2-yl)-2,2,2-trifluoroethyl)-N-methyl-2-oxo-1,2-dihydropyridine-4-carboxamide], the half-maximal inhibitory concentration (IC50) is 26000 nM in test [2] and over 3000 nM on FL hMALT1 enzyme.
Consider `CN(C(=O)CCCC(=O)O)[C@@H](c1ccc(NC2Cc3ccccc3C2(C)C)cc1)C(F)(F)F` (single isomer, unassigned) [Example 49], for which the IC50 in test [1] (Homo sapiens, Jurkat, 48 h) was determined as 4690 nM; in test [2] it was 260 nM.
`CNS(=O)(=O)CCC(=O)N(C)[C@@H](c1ccc(NC2Cc3ccccc3C2(C)C)cc1)C(F)(F)F` (single isomer, unassigned) [Example 61]: the IC50 worked out at 840 nM in test [1] (48 hours) and 180 nM in test [2].
With `CN(C(=O)C1CCS(=O)(=O)CC1)[C@@H](c1ccc(NC2Cc3ccccc3C2)cn1)C(F)(F)F` (single isomer, unassigned) [Example 71], the IC50 in test [1] (Homo sapiens, Jurkat, 48 h) came to 2620 nM; in test [2] it was 330 nM.

The IC50 is the concentration at which inhibition is half-maximal.
